From patent US9242933B2 (AbbVie Deutschland GmbH & Co. KG, priority 2007, dated 2016)
pEC50: −log10 of the molar value.

biological target: T1, human mGlu2 receptor (Homo sapiens, UniProt Q14416); assay: FLIPR intracellular Ca2+ assay, potentiation of glutamate response in HEK293 clone expressing mGlu2 receptor, rGLAST and Galpha16; format: cell-based; conditions: 1 μM glutamate added ten minutes after test compound, HEK293 cells with human mGlu2, rGLAST, Galpha16, read-out: EC50 values of potentiation effect to glutamate
T1 construct: expressed in transfected cells; host or cells: HEK293
T1 sequence (Q14416 19-872): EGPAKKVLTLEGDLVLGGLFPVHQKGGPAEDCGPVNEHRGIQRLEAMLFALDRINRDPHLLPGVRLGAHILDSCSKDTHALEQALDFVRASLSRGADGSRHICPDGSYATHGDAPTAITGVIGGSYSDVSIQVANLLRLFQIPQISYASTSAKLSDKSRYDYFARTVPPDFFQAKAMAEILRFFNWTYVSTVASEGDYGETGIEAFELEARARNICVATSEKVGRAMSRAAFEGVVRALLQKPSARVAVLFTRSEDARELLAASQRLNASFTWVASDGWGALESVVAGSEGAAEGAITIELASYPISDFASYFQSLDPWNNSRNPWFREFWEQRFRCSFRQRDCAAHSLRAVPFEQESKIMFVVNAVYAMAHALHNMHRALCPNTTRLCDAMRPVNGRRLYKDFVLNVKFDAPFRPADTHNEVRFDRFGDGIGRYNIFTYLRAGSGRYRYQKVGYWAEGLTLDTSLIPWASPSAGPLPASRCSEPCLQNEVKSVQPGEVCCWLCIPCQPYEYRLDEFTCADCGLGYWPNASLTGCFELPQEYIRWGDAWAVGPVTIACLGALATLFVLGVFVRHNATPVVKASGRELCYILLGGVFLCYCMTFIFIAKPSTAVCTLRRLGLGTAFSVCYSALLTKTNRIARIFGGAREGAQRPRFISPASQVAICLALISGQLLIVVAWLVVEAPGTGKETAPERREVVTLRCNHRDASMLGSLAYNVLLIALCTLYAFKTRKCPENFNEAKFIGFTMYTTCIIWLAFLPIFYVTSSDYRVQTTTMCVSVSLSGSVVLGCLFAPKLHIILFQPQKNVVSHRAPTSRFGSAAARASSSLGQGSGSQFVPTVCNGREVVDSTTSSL
Description: The compounds of the present invention can be tested e.g. by evaluating intracellular Ca^2+ concentrations in cells permanently expressing human mGlu receptor, the rat glutamate transporter rGLAST and the Galpha16 subunit of the G-protein complex under standard conditions in a fluorometric imaging plate reader (FLIPR, Molecular Devices, Union City, Calif. 94587, USA) by measuring the response of the cells to a test compound in the absence of presence of glutamate. The FLIPR assay is a common functional assay to monitor native or recombinant Galphaq-coupled receptors, and native or recombinant receptors normally linked to other G-protein signalling cascades, which are coupled to calcium through co-expression of an alpha subunit of a promiscuous or chimeric G-protein. In the assay the increase of intracellular calcium is measured through a calcium-dependent fluorescent dye (e.g. Fluo-4 AM) in the FLIPR instrument.
For the purpose of the present study, a cell line permanently expressing a human mGlu receptor, such as the mGlu2 receptor, the rat glutamate transporter rGLAST and the GalphaG16 may be generated by transfection as described in the examples. For selection of a suitable cell clone and also the subsequent measurements, the selected clone the cells will be plated on suitable multiwell plates in a suitable medium (e.g. DMEM Glutamax (GIBCO #21885-025)/10% dialyzed FCS). Cells may be selected by gentamycin treatment as described in the examples. Cells will then be loaded with a suitable Ca^2+ sensitive fluorescence dye, e.g. with 2 μM Fluo-4 AM (Molecular Probes, F14201). Cells will then be washed with a suitable buffer (e.g. HEPES) and the thus treated plates will be measured in a fluorometric imaging plate reader (e.g. FLIPR, Molecular Devices, Union City, Calif. 94587, USA).
The compounds of the present invention were tested in the above-described FLIPR assay using the selected cell clone. Increased intracellular calcium levels were quantified following addition of test compound (agonism), as well as following addition of a submaximal concentration of glutamate (potentiation).
For the determination of the effect of the test compound by itself (agonism) or by increasing the response to a submaximal concentration (e.g. 1 μM) of glutamate (potentiation), the resulting signal is determined by subtraction of the background fluorescence from the maximal fluorescent peak height of the respective response. In the FLIPR instrument the compound is given to the cell and its fluorescence response quantified by the FLIPR instrument (agonism). The concentration at which the compound exerts half its maximal effect is named the ‘effective concentration 50’ or ‘EC50’. The maximal effect induced by the test substance is normalized to the maximal effect exerted by 100 μM glutamate (set at 100%).
After addition of the test compound to the plate, a submaximal concentration of glutamate (e.g. 1 μM glutamate) will be added. A potentiator enhances the response of the receptor to glutamate. The response to glutamate in the presence of test compound is quantified. The concentration at which the test compound is able to exert half its maximal potentiation effect to glutamate is named the ‘EC50’. The maximal response to the submaximal concentration of glutamate (e.g. 1 micromolar glutamate) in the presence of test compound is normalized to the maximal effect exerted by 100 micromolar glutamate (set at 100%). Least squares curve fitting with a four-parameter equation is then applied to the resulting dose-response curve to determine the resulting EC5O values (Graph Pad Prism).
For the purpose of the present study, a cell line permanently expressing the human mGlu2 receptor, the rat glutamate transporter rGLAST and the alpha subunit of G16 was generated by transfection. […]

pEC50 | Compound
5.00 to 6.00 | CCCC(=O)c1ccc(NCc2cn(-c3ccccc3)nc2-c2ccncc2)cc1 [Example 214, 1-{4-[(1-Phenyl-3-pyridin-4-yl-1H-pyrazol-4-ylmethyl)-amino]-phenyl}-butan-1-one]
5.00 to 6.00 | CCCC(=O)c1ccc(NCc2n[nH]c3ccccc23)cc1 [Example 215, 1-{4-[(1H-Indazol-3-ylmethyl)-amino]-phenyl}-butan-1-one]
5.00 to 6.00 | CCCC(=O)c1ccc(NCc2ccnn2C)cc1 [Example 216, 1-{4-[(2-Methyl-2H-pyrazol-3-ylmethyl)-amino]-phenyl}-butan-1-one]
> 6.00 | CCCC(=O)c1ccc(NCc2c[nH]nc2-c2ccc(Cl)cc2)cc1 [Example 217, 1-(4-{[3-(4-Chloro-phenyl)-1H-pyrazol-4-ylmethyl]-amino}-phenyl)-butan-1-one]
> 6.00 | CCCC(=O)c1ccc(NCc2c[nH]nc2-c2ccc(OC)c(OC)c2)cc1 [Example 218, 1-(4-{[3-(3,4-Dimethoxy-phenyl)-1H-pyrazol-4-ylmethyl]-amino}-phenyl)-butan-1-one]
5.00 to 6.00 | CCCC(=O)c1ccc(NCc2nn(C)c3ccccc23)cc1 [Example 219, 1-{4-[(1-Methyl-1H-indazol-3-ylmethyl)-amino]-phenyl}-butan-1-one]
5.00 to 6.00 | CCCC(=O)c1ccc(NCc2cnn(Cc3ccccc3)c2)cc1 [Example 220, 1-{4-[(1-Benzyl-1H-pyrazol-4-ylmethyl)-amino]-phenyl}-butan-1-one]
5.00 to 6.00 | CCCC(=O)c1ccc(NCc2cn(-c3ccccc3)nc2-c2ccc(F)cc2)cc1 [Example 221, 1-(4-{[3-(4-Fluorophenyl)-1-phenyl-1H-pyrazol-4-ylmethyl]-amino}-phenyl)-butan-1-one]
5.00 to 6.00 | CCCC(=O)c1ccc(NCc2cn(-c3ccccc3)nc2-c2cccnc2)cc1 [Example 222, 1-{4-[(1-Phenyl-3-pyridin-3-yl-1H-pyrazol-4-ylmethyl)-amino]-phenyl}-butan-1-one]
5.00 to 6.00 | CCCC(=O)c1ccc(NCc2n[nH]c3ccc(OC)cc23)cc1 [Example 223, 1-{4-[(5-Methoxy-1H-indazol-3-ylmethyl)-amino]-phenyl}-butan-1-one]
5.00 to 6.00 | CCCC(=O)c1ccc(NCc2c(C)n[nH]c2C)cc1 [Example 224, 1-{4-[(3,5-Dimethyl-1H-pyrazol-4-ylmethyl)-amino]-phenyl}-butan-1-one]
5.00 to 6.00 | CCCC(=O)c1ccc(NCc2nc3ccccc3n2C)cc1 [Example 226, 1-{4-[(1-Methyl-1H-benzoimidazol-2-ylmethyl)-amino]-phenyl}-butan-1-one]
5.00 to 6.00 | CCCC(=O)c1ccc(NCc2c(C)noc2C)cc1 [Example 227, 1-{4-[(3,5-Dimethyl-isoxazol-4-ylmethyl)-amino]-phenyl}-butan-1-one]
5.00 to 6.00 | CCCC(=O)c1ccc(NCc2cn(C)cn2)cc1 [Example 228, 1-{4-[(1-Methyl-1H-imidazol-4-ylmethyl)-amino]-phenyl}-butan-1-one]
5.00 to 6.00 | CCCC(=O)c1ccc(NCc2sc(C)nc2-c2ccccc2)cc1 [Example 233, 1-{4-[(2-Methyl-4-phenyl-thiazol-5-ylmethyl)-amino]-phenyl}-butan-1-one]
5.00 to 6.00 | CCCC(=O)c1ccc(NCc2cnc(-c3ccccc3OC)s2)cc1 [Example 242, 1-(4-{[2-(2-Methoxy-phenyl)-thiazol-5-ylmethyl]-amino}-phenyl)-butan-1-one]
5.00 to 6.00 | CCCC(=O)c1ccc(NCc2cnc(-c3cccc(OC)c3)s2)cc1 [Example 243, 1-(4-{[2-(3-Methoxy-phenyl)-thiazol-5-ylmethyl]-amino}-phenyl)-butan-1-one]

pEC50 | Compound
5.00 to 6.00 | CCCC(=O)c1ccc(NCc2nc(-c3cccs3)oc2C)cc1 [Example 245, 1-{4-[(5-Methyl-2-thiophen-2-yl-oxazol-4-ylmethyl)-amino]-phenyl}-butan-1-one]
5.00 to 6.00 | CCCC(=O)c1ccc(NCc2cnc(-c3ccccc3)s2)cc1 [Example 246, 1-{4-[(2-Phenyl-thiazol-5-ylmethyl)-amino]-phenyl}-butan-1-one]
5.00 to 6.00 | CCCC(=O)c1ccc(NCc2sc(Cl)nc2Cl)cc1 [Example 250, 1-{4-[(2,4-Dichloro-thiazol-5-ylmethyl)-amino]-phenyl}-butan-1-one]
5.00 to 6.00 | CCCC(=O)c1ccc(NCc2cc(-c3ccccc3F)no2)cc1 [Example 255, 1-(4-{[3-(2-Fluorophenyl)-isoxazol-5-ylmethyl]-amino}-phenyl)-butan-1-one]
5.00 to 6.00 | CCCC(=O)c1ccc(NCc2cnc(Oc3ccc(OC)cc3)s2)cc1 [Example 260, 1-(4-{[2-(4-Methoxy-phenoxy)-thiazol-5-ylmethyl]-amino}-phenyl)-butan-1-one]
5.00 to 6.00 | CCCC(=O)c1ccc(NCc2csc(C(C)C)n2)cc1 [Example 268, 1-{4-[(2-Isopropyl-thiazol-4-ylmethyl)-amino]-phenyl}-butan-1-one]
5.00 to 6.00 | CCCOc1ccc(NCc2c[nH]nc2C(C)(C)C)cc1 [Example 273, (3-tert-Butyl-1H-pyrazol-4-ylmethyl)-(4-propoxy-phenyl)-amine]
5.00 to 6.00 | CC(C)(C)c1n[nH]cc1CNc1ccc(OC(F)(F)Cl)cc1 [Example 281, (3-tert-Butyl-1H-pyrazol-4-ylmethyl)-[4-(chloro-difluoro-methoxy)-phenyl]-amine]
5.00 to 6.00 | CN1CCC(Oc2ccc(NCc3c[nH]nc3C(C)(C)C)cc2)CC1 [Example 284, (3-tert-Butyl-1H-pyrazol-4-ylmethyl)-[4-(1-methyl-piperidin-4-yloxy)-phenyl]-amine]
5.00 to 6.00 | CC(C)(C)c1n[nH]cc1CNc1ccc(OCc2ccccn2)cc1 [Example 285, (3-tert-Butyl-1H-pyrazol-4-ylmethyl)-[4-(pyridin-2-ylmethoxy)-phenyl]-amine]
5.00 to 6.00 | CCCC(=O)c1ccc(NCc2ccc(Cl)nc2Cl)cc1 [Example 307, 1-{4-[(2,6-Dichloro-pyridin-3-ylmethyl)-amino]-phenyl}-butan-1-one]
5.00 to 6.00 | CCCC(=O)c1ccc(NCc2cccnc2OC(C)C)cc1 [Example 310, 1-{4-[(2-Isopropoxy-pyridin-3-ylmethyl)-amino]-phenyl}-butan-1-one]
5.00 to 6.00 | CCCOc1ncccc1CNc1ccc(C(=O)CCC)cc1 [Example 311, 1-{4-[(2-Propoxy-pyridin-3-ylmethyl)-amino]-phenyl}-butan-1-one]
5.00 to 6.00 | CCCC(=O)c1ccc(NCc2ccc(N3CCCCC3)nc2)cc1 [Example 312, 1-{4-[(3,4,5,6-Tetrahydro-2H-[1,2′]bipyridinyl-5′-ylmethyl)-amino]-phenyl}-butan-1-one]
5.00 to 6.00 | CCCC(=O)c1ccc(NCc2ccc(OC3CCCC3)nc2)cc1 [Example 313, 1-{4-[(6-Cyclopentyloxy-pyridin-3-ylmethyl)-amino]-phenyl}-butan-1-one]
5.00 to 6.00 | CCCC(=O)c1ccc(NCc2ccc(OC)nc2OC)cc1 [Example 317, 1-{4-[(2,6-Dimethoxy-pyridin-3-ylmethyl)-amino]-phenyl}-butan-1-one]
5.00 to 6.00 | CCCC(=O)c1ccc(NCc2cccnc2-c2ccsc2)cc1 [Example 321, 1-{4-[(2-Thiophen-3-yl-pyridin-3-ylmethyl)-amino]-phenyl}-butan-1-one]

Compound | pEC50
CC(C)COc1ccc(NCc2c[nH]nc2C(C)(C)C)cc1 [Example 286, (3-tert-Butyl-1H-pyrazol-4-ylmethyl)-(4-isobutoxy-phenyl)-amine] | 5.00 to 6.00
CC(C)CCOc1ccc(NCc2c[nH]nc2C(C)(C)C)cc1 [Example 298, (3-tert-Butyl-1H-pyrazol-4-ylmethyl)-[4-(3-methyl-butoxy)-phenyl]-amine] | 5.00 to 6.00
